By EC50 is commonly meant the concentration at which the effect is half-maximal. Broadly, the Kd is the equilibrium constant for the complex coming apart.

One assay has as its target T1, RARγ receptors (Homo sapiens, UniProt P13631).
T1 sequence (P13631 185-419 limits assumed): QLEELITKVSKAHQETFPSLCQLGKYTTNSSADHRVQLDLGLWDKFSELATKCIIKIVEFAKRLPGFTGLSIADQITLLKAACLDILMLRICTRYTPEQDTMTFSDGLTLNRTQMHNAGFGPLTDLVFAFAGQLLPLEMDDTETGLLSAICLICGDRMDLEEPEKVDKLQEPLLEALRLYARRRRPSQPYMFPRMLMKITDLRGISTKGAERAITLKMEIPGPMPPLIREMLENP
The experiment in a line: chimeric receptor transactivation assay, RARγ. Type of assay: cell-based. The conditions noted are these: agonist activity. From the text:
For example, a chimeric receptor transactivation assay which tests for agonist-like activity in the RARα, RARβ, RARγ, RXRα receptor subtypes, and which is based on work published by Feigner P. L. and Holm M. (1989) Focus, 112 is described in detail in U.S. Pat. No. 5,455,265. The specification of U.S. Pat. No. 5,455,265 is hereby expressly incorporated by reference.
The results obtained in this assay are expressed in EC50 numbers, as they are also in the chimeric receptor transactivation assay.

A further assay addresses T2, RARα receptors (Homo sapiens, UniProt P10276).
T2 construct: made in house; used as extract protein
T2 sequence (P10276 1-462): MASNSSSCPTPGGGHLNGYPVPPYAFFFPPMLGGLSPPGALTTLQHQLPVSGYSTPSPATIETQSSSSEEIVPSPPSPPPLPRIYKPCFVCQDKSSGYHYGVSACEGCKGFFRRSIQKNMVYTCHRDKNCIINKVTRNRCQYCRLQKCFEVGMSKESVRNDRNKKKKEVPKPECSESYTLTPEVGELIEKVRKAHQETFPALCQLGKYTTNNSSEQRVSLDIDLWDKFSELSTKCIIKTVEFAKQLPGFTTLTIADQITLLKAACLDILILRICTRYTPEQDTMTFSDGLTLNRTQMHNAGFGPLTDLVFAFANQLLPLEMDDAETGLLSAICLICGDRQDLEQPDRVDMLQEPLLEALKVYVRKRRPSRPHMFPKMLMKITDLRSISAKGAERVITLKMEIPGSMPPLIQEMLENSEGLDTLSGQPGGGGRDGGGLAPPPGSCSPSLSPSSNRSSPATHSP
Put plainly: ligand binding assay. The conditions noted are these: receptor read as RARα from the sentence. The method, then:
All binding assays were performed in a similar fashion. All six receptor types were derived from the expressed receptor type (RAR α, β, γ and RXR α, β, γ) expressed in Baculovirus. Stock solutions of all compounds were prepared as 10 mM ethanol solutions and serial dilutions carried out into 1:1 DMSO; ethanol. Assay buffers consisted of the following for all six receptor assays: 8% glycerol. 120 mM KCl. 8 mM Tris. 5 mM CHAPS 4 mM DTT and 0.24 mM PMSF. pH-7.4@room temperature.
All receptor biding assays were performed in the same manner. The final assay volume was 250 μl and contained from 10-40 μg of extract protein depending on receptor being assayed along with 5 nM of [^3H] all-trans retinoic acid or 10 nM [^3H] 9-cis retinoic acid and varying concentrations of competing ligand at concentrations that ranged from 0-10^−5M. The assays were formatted for a 96 well minitube system. Incubations were carried out at 4° C. until equilibrium was achieved. […] The amount of receptor-ligand complex was determined by liquid scintillation counting of hydroxyapitite pellet.
After correcting for non-specific binding, IC50 values were determined. […] The IC50 value was determined graphically from a loglogit plot of the data. The […] were determined by application of the Cheng-Prussof equation to the IC50 values, the labeled ligand concentration and the Kd of the labeled ligand. […]

Each structure is given as a SMILES string.

On RARγ receptors, `CC1(C)CCC(C)(C)c2c1cc(C(=O)Nc1cc(F)c(C(=O)O)c(F)c1)c(O)c2Cl` [Compound 2, 2,6-Difluoro-4-[(3-hydroxy-4-chloro-5,5,8 8-tetramethyl-5,6,7,8-tetrahydronaphthalene-2-carbonyl) -amino]-benzoic acid] had an EC50 of more than 10000 nM. For the same molecule, binding on RARα receptors was characterised by a dissociation constant (Kd) of 5 nM.

The values above are taken from patent publication US6387950B2, “Treatment of tumors with RARα selective retinoid compounds in combination with other anti-tumor agents” (Allergan Sales, Inc., priority 2000, dated 2002).
